From patent US8372867B2, “Insecticidal aryl isoxazoline derivatives” (Bayer CropScience AG, priority 2007, dated 2013) come the findings set out here.

In one experiment the test system is Spodoptera litura. The experiment in a line: Test against larva of Spodoptera litura (leaf dip). Format: in vivo. The conditions noted are these: 100 ppm of the active compound; third instar larvae; after 7 days. The protocol: Solvent: Dimethylformamide 3 parts by weight
Emulsifier: Polyoxyethylene alkyl phenyl ether 1 part by weight
(§1) To prepare an appropriate formulation of an active compound, 1 part by weight of the active compound was mixed with the aforementioned amount of the solvent containing the aforementioned amount of the emulsifier, and the mixture was diluted to a prescribed concentration with water.
Leaves of sweet potate were soaked in the test agent diluted to a prescribed concentration with water, air-dried, and placed in a dish of 9 cm in diameter. Into this dish, 10 larvae of Spodoptera litura at the third instar were released and kept in a room at constant temperature of 25° C. After 2 and 4 days, more leaves of sweet potato were added, and the number of dead larvae after 7 days was counted to calculate the death rate. In this test, the test results are presented as an average of the results of two dishes per section.

The subject of a further experiment is Aulacophora femoralis. The experiment in a line: Test against Aulacophora femoralis (leaf dip). Format: in vivo. Particulars: 100 ppm of the active compound; second instar larvae; after 7 days. The protocol: as §1
Leaves of cucumbers were soaked in a diluted aqueous solution of the prescribed concentration of an active compound prepared in the same manner as in the aforementioned tests, air-dried, and placed a plastic cup containing sterilized black soil. Into this cup, 5 larvae of Aulacophora femoralis at second instar were then released. After 7 days, the number of dead larvae was counted to calculate the death rate.

The subject of the next experiment is Lucilia cuprina larvae. The experiment in a line: whole plant or invertebrate. Particulars: in Equus caballus, read-out: activity (mortality in %).
A further experiment relates to Musca domestica. The experiment in a line: whole plant or invertebrate. The conditions noted are these: read-out: activity (mortality in %).
Another experiment deals with Boophilus microplus. The experiment in a line: whole plant or invertebrate. The conditions noted are these: Rhipicephalus microplus, 168 h, read-out: activity (mortality in %).

On to `CNC(=O)NCc1ccc(C2=NOC(c3cc(Cl)cc(Cl)c3)(C(F)(F)F)C2)cc1Br` (stereo not drawn) [1-40], for which the death rate with Spodoptera litura and in the experiment with Aulacophora femoralis was 100% in each case.
For the molecule `CC(=O)N(Cc1cccnc1)Cc1ccc(C2=NOC(c3cc(Cl)cc(Cl)c3)(C(F)(F)F)C2)cc1Br` (stereo not drawn) [1-16], the death rate with Spodoptera litura and in the experiment with Aulacophora femoralis was 100% each time.
Regarding `CC(=O)NCc1ccc(C2=NOC(c3cc(Cl)cc(Cl)c3)(C(F)(F)F)C2)cc1Cl` (stereo not drawn) [1-58], the death rate in the experiment on Spodoptera litura and in the experiment with Aulacophora femoralis was 100% each time.
The mortality is the share of the test organisms that died. Take `CC(=O)NCc1ccc(C2=NOC(c3cc(Cl)cc(Cl)c3)(C(F)(F)F)C2)cc1C` (stereo not drawn) [1-63, N-{4-[5-(3,5-dichlorophenyl)-5-(trifluoromethyl)-4,5-dihydroisoxazol-3-yl]-2-methylbenzyl}acetamide]: the death rate in the experiment on Spodoptera litura and with Aulacophora femoralis was 100% in each case. Besides, the mortality at 100 ppm in the experiment on Lucilia cuprina larvae, with Musca domestica and with Boophilus microplus was at least 80% throughout.
Turning to `CC(=O)NCc1ccc(C2=NOC(c3ccc(Cl)c(Cl)c3)(C(F)(F)F)C2)cc1Br` (stereo not drawn) [1-94], the death rate with Spodoptera litura and in the experiment with Aulacophora femoralis was 100% each time.
Turning to `CC(=O)NCc1ccc(C2=NOC(c3cccc(C(F)(F)F)c3)(C(F)(F)F)C2)cc1Br` (stereo not drawn) [1-99], the death rate with Spodoptera litura and in the experiment on Aulacophora femoralis was 100% in each case.
`CC(=O)N(Cc1ccc(C2=NOC(c3cc(Cl)cc(Cl)c3)(C(F)(F)F)C2)cc1Br)N=C(C)C` (stereo not drawn) [1-90] yielded a death rate in the experiment on Spodoptera litura of 100%.
For the molecule `CC(=O)NCc1ccc(C2=NOC(C)(c3cccc(F)c3)C2)cc1Br` (stereo not drawn) [1-97], the death rate with Spodoptera litura and in the experiment with Aulacophora femoralis was 100% in each case.
On to `CCC(=O)NCc1ccc(C2=NOC(c3cc(Cl)cc(Cl)c3)(C(F)(F)F)C2)cc1Br` (stereo not drawn) [1-19], for which the death rate in the experiment on Spodoptera litura and in the experiment on Aulacophora femoralis was 100% throughout.
For `CC(=O)NCc1ccc(C2=NOC(c3cc(Cl)cc(Cl)c3)(C(F)(F)F)C2)cc1F` (stereo not drawn) [1-57], the death rate in the experiment on Spodoptera litura and in the experiment with Aulacophora femoralis was 100% throughout.
Consider `CC(=O)NCc1ccc(C2=NOC(c3cc(Cl)cc(Cl)c3)(C(F)(F)F)C2)cc1Br` (stereo not drawn) [1-13], for which the death rate in the experiment with Spodoptera litura and in the experiment with Aulacophora femoralis was 100% in each case.
`CC(=O)N(Cc1ccncc1)Cc1ccc(C2=NOC(c3cc(Cl)cc(Cl)c3)(C(F)(F)F)C2)cc1Br` (stereo not drawn) [1-17]: the death rate in the experiment with Spodoptera litura and in the experiment on Aulacophora femoralis was 100% each time.
Consider `CSC(=O)NCc1ccc(C2=NOC(c3cc(Cl)cc(Cl)c3)(C(F)(F)F)C2)cc1Br` (stereo not drawn) [1-43], for which the death rate with Spodoptera litura is given as 100%.
As to `CCC(=O)N(Cc1ccc(C2=NOC(c3cc(Cl)cc(Cl)c3)(C(F)(F)F)C2)cc1)Cc1ccccn1` (stereo not drawn) [1-6], the death rate in the experiment on Spodoptera litura and in the experiment on Aulacophora femoralis was 100% in each case.
Regarding `CS(=O)(=O)NCc1ccc(C2=NOC(c3cc(Cl)cc(Cl)c3)(C(F)(F)F)C2)cc1Br` (stereo not drawn) [1-38], the death rate with Spodoptera litura and in the experiment with Aulacophora femoralis was 100% each time.
Consider `CN(C)C(=O)NCc1ccc(C2=NOC(c3cc(Cl)cc(Cl)c3)(C(F)(F)F)C2)cc1Br` (stereo not drawn) [1-41], for which the death rate with Spodoptera litura and with Aulacophora femoralis was 100% throughout.
As to `CC(C)C(=O)NCc1ccc(C2=NOC(c3cc(Cl)cc(Cl)c3)(C(F)(F)F)C2)cc1Br` (stereo not drawn) [1-21], the death rate in the experiment on Spodoptera litura and with Aulacophora femoralis was 100% in each case.
As for `O=C(NCc1ccc(C2=NOC(c3cc(Cl)cc(Cl)c3)(C(F)(F)F)C2)cc1Br)c1cccnc1` (stereo not drawn) [1-26], the death rate with Spodoptera litura and in the experiment with Aulacophora femoralis was 100% in each case.
Turning to `CCCC(=O)NCc1ccc(C2=NOC(c3cc(Cl)cc(Cl)c3)(C(F)(F)F)C2)cc1Br` (stereo not drawn) [1-20], the death rate in the experiment on Spodoptera litura and in the experiment on Aulacophora femoralis was 100% each time.
For `Cc1ccccc1C(=O)NCc1ccc(C2=NOC(c3cc(Cl)cc(Cl)c3)(C(F)(F)F)C2)cc1Br` (stereo not drawn) [1-35], the death rate with Spodoptera litura and in the experiment on Aulacophora femoralis was 100% throughout.
Turning to `CC(=O)NCc1ccc(C2=NOC(c3cc(Cl)cc(Cl)c3)(C(F)(F)F)C2)cc1C#N` (stereo not drawn) [1-62], the death rate in the experiment on Spodoptera litura and with Aulacophora femoralis was 100% throughout.
In turn, `O=C(NCc1ccc(C2=NOC(c3cc(Cl)cc(Cl)c3)(C(F)(F)F)C2)cc1Br)c1ccc(Cl)cc1` (stereo not drawn) [1-33] registered a death rate in the experiment with Aulacophora femoralis of 100%.
Take `O=C(NCc1ccc(C2=NOC(c3cc(Cl)cc(Cl)c3)(C(F)(F)F)C2)cc1Br)c1ccccc1Br` (stereo not drawn) [1-34]: the death rate in the experiment with Spodoptera litura and in the experiment with Aulacophora femoralis was 100% in each case.
For `CC(=O)N(C)Cc1ccc(C2=NOC(c3cc(Cl)cc(Cl)c3)(C(F)(F)F)C2)cc1Br` (stereo not drawn) [1-46], the death rate in the experiment on Spodoptera litura and with Aulacophora femoralis was 100% in each case.
Consider `O=C(NCc1ccc(C2=NOC(c3cc(Cl)cc(Cl)c3)(C(F)(F)F)C2)cc1Br)c1ccccc1F` (stereo not drawn) [1-28], for which the death rate in the experiment with Spodoptera litura and with Aulacophora femoralis was 100% throughout.
Regarding `O=C(NCc1ccc(C2=NOC(c3cc(Cl)cc(Cl)c3)(C(F)(F)F)C2)cc1Br)C(F)(F)F` (stereo not drawn) [1-23], the death rate in the experiment on Spodoptera litura and in the experiment with Aulacophora femoralis was 100% each time.
As for `CC(=O)NCc1ccc(C2=NOC(c3cccc(C#N)c3)(C(F)(F)F)C2)cc1Br` (stereo not drawn) [1-106], the death rate with Aulacophora femoralis is given as 100%.
In the case of `CC(=O)N(Cc1ccccn1)Cc1ccc(C2=NOC(c3cc(Cl)cc(Cl)c3)(C(F)(F)F)C2)cc1Br` (stereo not drawn) [1-15, N-{2-bromo-4-[5-(3,5-dichlorophenyl)-5-(trifluoromethyl)-4,5-dihydroisoxazol-3-yl]benzyl}-N-(pyridin-2-ylmethyl)acetamide], the death rate with Spodoptera litura and with Aulacophora femoralis was 100% throughout. In addition, the mortality at 100 ppm with Lucilia cuprina larvae and in the experiment with Musca domestica was at least 80% throughout.
Turning to `CC(=O)NCc1ccc(C2=NOC(c3ccc(C(F)(F)F)cc3)(C(F)(F)F)C2)cc1Br` (stereo not drawn) [1-100], the death rate in the experiment on Spodoptera litura and in the experiment with Aulacophora femoralis was 100% throughout.
For `CC(=O)NCc1ccc(C2=NOC(c3cc(C(F)(F)F)cc(C(F)(F)F)c3)(C(F)(F)F)C2)cc1Br` (stereo not drawn) [1-101], the death rate with Spodoptera litura and with Aulacophora femoralis was 100% throughout.
On to `CC(=O)N(Cc1ccccn1)C(C#N)c1ccc(C2=NOC(c3cc(Cl)cc(Cl)c3)(C(F)(F)F)C2)cc1` (stereo not drawn) [1-11, N-(cyano{4-[5-(3,5-dichlorophenyl)-5-(trifluoromethyl)-4,5-dihydroisoxazol-3-yl]phenyl}methyl)-N-(pyridin-2-ylmethyl)-acetamide], for which the death rate with Spodoptera litura and with Aulacophora femoralis was 100% each time.
On to `CC(=O)NCc1ccc(C2=NOC(c3cc(Cl)cc(Cl)c3)(C(F)(F)F)C2)cc1I` (stereo not drawn) [1-59], for which the death rate with Spodoptera litura and with Aulacophora femoralis was 100% throughout.
`CC(=O)NCc1ccc(C2=NOC(c3cc(Cl)cc(Cl)c3)(C(F)(F)F)C2)cc1` (stereo not drawn) [1-1, N-{4-[5-(3,5-dichlorophenyl)-5-(trifluoromethyl)-4,5-dihydroisoxazol-3-yl]benzyl}acetamide]: the death rate with Spodoptera litura and with Aulacophora femoralis was 100% throughout. The mortality at 100 ppm in the experiment with Lucilia cuprina larvae and in the experiment with Musca domestica was at least 80% throughout.
Regarding `CC(=O)NCc1ccc(C2=NOC(c3cccc([N+](=O)[O-])c3)(C(F)(F)F)C2)cc1Br` (stereo not drawn) [1-102], the death rate in the experiment with Aulacophora femoralis is given as 100%.
In the case of `CC(=O)N(Cc1ccc(C2=NOC(c3cc(Cl)cc(Cl)c3)(C(F)(F)F)C2)cc1)C(C)=O` (stereo not drawn) [1-2], the death rate with Spodoptera litura and in the experiment with Aulacophora femoralis was 100% each time.
In the case of `O=C(NCc1ccc(C2=NOC(c3cc(Cl)cc(Cl)c3)(C(F)(F)F)C2)cc1Br)c1ccccn1` (stereo not drawn) [1-25], in the experiment on Spodoptera litura, the death rate is on record as 100%.
`CC(=O)NCc1ccc(C2=NOC(C)(c3cc(Cl)cc(Cl)c3)C2)cc1Br` (stereo not drawn) [1-93]: in the experiment on Aulacophora femoralis, the death rate amounted to 100%.
Regarding `O=C(NCc1ccc(C2=NOC(c3cc(Cl)cc(Cl)c3)(C(F)(F)F)C2)cc1Br)c1ccncc1` (stereo not drawn) [1-27], the death rate with Spodoptera litura and with Aulacophora femoralis was 100% throughout.
Take `O=C(NCc1ccc(C2=NOC(c3cc(Cl)cc(Cl)c3)(C(F)(F)F)C2)cc1Br)c1ccccc1` (stereo not drawn) [1-24]: the death rate in the experiment with Spodoptera litura and in the experiment with Aulacophora femoralis was 100% throughout.
On to `CC(=O)NCc1ccc(C2=NOC(c3cccc(Cl)c3)(C(F)(F)F)C2)cc1Br` (stereo not drawn) [1-98], for which the death rate in the experiment on Spodoptera litura and in the experiment on Aulacophora femoralis was 100% in each case.
Consider `C=CC(=O)NCc1ccc(C2=NOC(c3cc(Cl)cc(Cl)c3)(C(F)(F)F)C2)cc1Br` (stereo not drawn) [1-36], for which the death rate with Spodoptera litura and with Aulacophora femoralis was 100% each time.
For the molecule `O=CN(Cc1ccc(C2=NOC(c3cc(Cl)cc(Cl)c3)(C(F)(F)F)C2)cc1)Cc1ccccn1` (stereo not drawn) [1-4], the death rate in the experiment on Spodoptera litura was determined as 100%.
On to `O=C(NCc1ccc(C2=NOC(c3cc(Cl)cc(Cl)c3)(C(F)(F)F)C2)cc1Br)c1cccc(Cl)c1` (stereo not drawn) [1-32], for which the death rate in the experiment on Spodoptera litura and with Aulacophora femoralis was 100% in each case.
In the case of `O=CNCc1ccc(C2=NOC(c3cc(Cl)cc(Cl)c3)(C(F)(F)F)C2)cc1Br` (stereo not drawn) [1-12], the death rate with Spodoptera litura and in the experiment with Aulacophora femoralis was 100% each time.
